# Tests used:
# DC-SIGN = molecular target: T1, DC-SIGN (Homo sapiens, UniProt Q9NNX6); assay: Binding of DC-SIGN to an HMO chip; conditions: Cy3-labelled DC-SIGN
# T1 sequence (Q9NNX6 1-404): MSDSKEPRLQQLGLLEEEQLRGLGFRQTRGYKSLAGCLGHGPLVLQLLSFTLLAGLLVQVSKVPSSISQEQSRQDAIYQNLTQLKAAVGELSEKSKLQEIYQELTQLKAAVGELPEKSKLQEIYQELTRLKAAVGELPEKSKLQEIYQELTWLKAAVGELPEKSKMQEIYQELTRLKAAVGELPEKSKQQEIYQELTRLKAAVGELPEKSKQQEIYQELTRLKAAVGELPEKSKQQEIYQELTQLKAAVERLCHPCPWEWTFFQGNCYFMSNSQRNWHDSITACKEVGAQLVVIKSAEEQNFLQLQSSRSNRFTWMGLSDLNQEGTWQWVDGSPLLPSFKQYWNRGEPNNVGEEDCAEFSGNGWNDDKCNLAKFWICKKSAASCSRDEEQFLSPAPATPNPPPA
# S1 subunit of SARS-CoV-2 = S1 subunit of SARS-CoV-2 (Severe acute respiratory syndrome coronavirus 2, UniProt P0DTC2)
# [1] = molecular target: S1 subunit (the S1 protein) of SARS-CoV-2 binding to 16HBE cells (bronchial epithelial cells) (Severe acute respiratory syndrome coronavirus 2, UniProt P0DTC2); assay type: cell-based; conditions: 40 μM chondroitin sulfate, 20 μM fucoidan, 1 h pre-incubation; confocal microscopy
# [2] = molecular target: S1 subunit (the S1 protein) of SARS-CoV-2 binding to lung epithelial cells (BEAS-2B cells) (Severe acute respiratory syndrome coronavirus 2, UniProt P0DTC2); assay type: cell-based; conditions: fixed cells pre-incubated with sugar chain 1 h, S1 subunit 1 μM
# [3] = molecular target: S1 subunit (the S1 protein) of SARS-CoV-2 binding to African green monkey kidney cells (Vero-E6 cells) (Severe acute respiratory syndrome coronavirus 2, UniProt P0DTC2); assay type: cell-based; conditions: fixed cells pre-incubated with sugar chain 1 h, S1 subunit 1 μM
# [4] = tested on: SARS-CoV-2 pseudovirus in Vero-E6 cells; assay type: cell-based
molecule,measurement,setting,value
"CC(=O)N[C@H]1[C@H](O[C@H]2[C@@H](O)[C@@H](CO)O[C@@H](O[C@H]3[C@H](O)[C@@H](O)C(O)O[C@@H]3CO)[C@@H]2O)O[C@H](CO)[C@@H](O[C@@H]2O[C@@H](C)[C@@H](O)[C@@H](O)[C@@H]2O)[C@@H]1O[C@@H]1O[C@H](CO)[C@H](O)[C@H](O)[C@H]1O (stereo partly drawn) [HMO13, Galβ1-3(Fucα1-4)GlcNAcβ1-3Galβ1-4Glc]","Binding of DC-SIGN to an HMO chip, RFU",DC-SIGN,1896.5 RFU
"CC(=O)N[C@H]1[C@H](O[C@H]2[C@@H](O)[C@@H](CO)O[C@@H](O[C@H]3[C@H](O)[C@@H](O)C(O)O[C@@H]3CO)[C@@H]2O)O[C@H](CO)[C@@H](O[C@@H]2O[C@H](CO)[C@H](O)[C@H](O)[C@H]2O)[C@@H]1O[C@@H]1O[C@@H](C)[C@@H](O)[C@@H](O)[C@@H]1O (stereo partly drawn) [HMO14, Galβ1-4(Fucα1-3)GlcNAcβ1-3Galβ1-4Glc]","Binding of DC-SIGN to an HMO chip, RFU",DC-SIGN,2125.34 RFU
"CC(=O)N[C@@H]1[C@@H](O[C@@H]2O[C@H](CO)[C@H](O)[C@H](O)[C@H]2O)[C@@H](O)[C@@H](CO[C@@H]2O[C@H](CO)[C@@H](O)[C@H](O)[C@H]2NC(C)=O)O[C@@H]1O [O23, GlcNAcβ1-6(Galβ1-3)GalNAcα]","Binding of the S1 subunit of a virus to an O-sugar chain chip, RFU",S1 subunit of SARS-CoV-2,69.84 RFU
"CC(=O)N[C@@H]1[C@@H](O[C@@H]2O[C@H](CO)[C@@H](O[C@@H]3O[C@H](CO)[C@H](O)[C@H](O)[C@H]3O[C@@H]3O[C@@H](C)[C@@H](O)[C@@H](O)[C@@H]3O)[C@H](O[C@@H]3O[C@@H](C)[C@@H](O)[C@@H](O)[C@@H]3O)[C@H]2NC(C)=O)[C@@H](O)[C@@H](CO)O[C@@H]1O [O33, Fucα1-2Galβ1-4(Fucα1-3)GlcNAcβ1-3GalNAcα]","Binding of the S1 subunit of a virus to an O-sugar chain chip, RFU",S1 subunit of SARS-CoV-2,6320.17 RFU
"CC(=O)N[C@@H]1[C@@H](O[C@@H]2O[C@H](CO)[C@@H](O)[C@H](O)[C@H]2NC(C)=O)[C@@H](O)[C@@H](CO[C@@H]2O[C@H](CO)[C@@H](O)[C@H](O)[C@H]2NC(C)=O)O[C@@H]1O [O39, GlcNAcβ1-6(GlcNAcβ1-3)GalNAcα]","Binding of the S1 subunit of a virus to an O-sugar chain chip, RFU",S1 subunit of SARS-CoV-2,136.5 RFU
Fucα1-2Gal 1-4GlcNAcβ1-3Galβ1-4Glc [HMO15],"Binding of DC-SIGN to an HMO chip, RFU",DC-SIGN,1683.84 RFU
Fucα1-2Galβ1-4(Fucα1-3)GlcNAcβ1-3Gal 1-4Glc [HMO16],"Binding of DC-SIGN to an HMO chip, RFU",DC-SIGN,2537.92 RFU
Fucα1-2Galβ1-4(Fucα1-3)GlcNAcβ1-3Galβ1-3GalNAcα [O20],"Binding of the S1 subunit of a virus to an O-sugar chain chip, RFU",S1 subunit of SARS-CoV-2,304.5 RFU
Fucα1-2Galβ1-4(Fucα1-3)GlcNAcβ1-6(Fucα1-2Galβ1-4(Fucα1-3)GlcNAcβ1-3)Galβ1-4Glc [HMO46],"Binding of DC-SIGN to an HMO chip, RFU",DC-SIGN,2425.92 RFU
Fucα1-2Galβ1-4Glc [HMO3],"Binding of DC-SIGN to an HMO chip, RFU",DC-SIGN,2930.75 RFU
Fucα1-2Galβ1-4GlcNAcβ1-6(Fucα1-2Galβ1-4GlcNAcβ1-3)Galβ1-4Glc [HMO45],"Binding of DC-SIGN to an HMO chip, RFU",DC-SIGN,838.42 RFU
Galα1-3(Fucα1-2)Galβ1-4GlcNAcβ1-3NAcα [O36],"Binding of the S1 subunit of a virus to an O-sugar chain chip, RFU",S1 subunit of SARS-CoV-2,320.5 RFU
Galβ1-4(Fucα1-3)Glc [HMO2],"Binding of DC-SIGN to an HMO chip, RFU",DC-SIGN,2329.09 RFU
Galβ1-4(Fucα1-3)GlcNAcβ1-6(Galβ1-4GlcNAcβ1-3)Gal 1-4Glc [HMO43],"Binding of DC-SIGN to an HMO chip, RFU",DC-SIGN,1196.59 RFU
Galβ1-4(Fucα1-3)GlcNAcβ1-6(GlcNAcβ1-3)Gal 1-4Glc [HMO36],"Binding of DC-SIGN to an HMO chip, RFU",DC-SIGN,1707.42 RFU
Galβ1-4GlcNAcβ1-6(Fucα1-2Gal 1-4GlcNAcβ1-3)Gal 1-4Glc [HMO40],"Binding of DC-SIGN to an HMO chip, RFU",DC-SIGN,801.5 RFU
GlcNAcβ1-6[Fucα1-2Galβ1-4(Fucα1-3)GlcNAcβ1-3]Galβ1-4Glc [HMO33],"Binding of DC-SIGN to an HMO chip, RFU",DC-SIGN,1913.59 RFU
GlcNAcβ1-6[Galβ1-4(Fucα1-3)GlcNAcβ1-3]Galβ1-4Glc [HMO31],"Binding of DC-SIGN to an HMO chip, RFU",DC-SIGN,2175.59 RFU
Neu5Acα2-3Galβ1-4GlcNAcβ1-3GalNAcα [O29],"Binding of the S1 subunit of a virus to an O-sugar chain chip, RFU",S1 subunit of SARS-CoV-2,2866.34 RFU
Neu5Acα2-6Galβ1-4GlcNAcβ1-3(Neu5Acα2-6Galβ1-3GlcNAcβ1-6)GalNAcα [O83],"Binding of the S1 subunit of a virus to an O-sugar chain chip, RFU",S1 subunit of SARS-CoV-2,6012.67 RFU
fucoidan,blocking of the binding of the S1 protein to bronchial epithelial cells (16HBE),[1],successfully block
same,blocking of the binding of the S1 subunit to BEAS-2B cells,[2],can block
same,blocking of the binding of the S1 subunit to Vero-E6 cells,[3],can block
same,inhibition activity to pseudovirus invasion and infection of the cells,[4],exhibit an inhibition activity
nadroparin calcium,blocking of the binding of the S1 subunit to BEAS-2B cells,[2],can block
same,blocking of the binding of the S1 subunit to Vero-E6 cells,[3],can block
same,inhibition activity to pseudovirus invasion and infection of the cells,[4],exhibit an inhibition activity
sodium chondroitin sulfate,blocking of the binding of the S1 protein to bronchial epithelial cells (16HBE),[1],successfully block
sodium heparin sulfate,blocking of the binding of the S1 subunit to BEAS-2B cells,[2],can block
same,blocking of the binding of the S1 subunit to Vero-E6 cells,[3],can block
